From article PMC6572618, “Anti-Trypanosomal and Antimalarial Properties of Tetralone Derivatives and Structurally Related Benzocycloalkanones” (Medicina, 2019)
Several values for one entry are separate records, joined by “and”; a condition that tells them apart may be missing. Equal values may be shown once. Read-outs that look alike come from different tables or passages of the source.

Key:
Format in all cases: cell-based
[1] = tested on: 427 Trypanosoma brucei brucei trypomastigotes; assay: In vitro anti-trypanosomal assay (resazurin); settings: 48 h; for viability at 20 µM / % Viability at 20 µM (SD) T.b. brucei: 20 µM compound, % parasite viability relative to untreated control; for viability at 20 µM: read-out: % Viability at 20 µM (SD) T.b. brucei; for IC50: three-fold serial dilutions from 100 µM, read-out: IC50 (µM) T. b. brucei
Experimental: The activity of the compounds against 427 Trypanosoma brucei brucei trypomastigotes was determined as previously described. Briefly, parasites were incubated in 96-well plates with 20 µM or three-fold serial dilutions (100 µM starting concentration) of test compounds in Iscove’s modified Dulbecco’s medium (IMDM) (Lonza, Basel, Switzerland) supplemented with 10% fetal calf serum, HMI-9 supplement, hypoxanthine, and penicillin/streptomycin at 37 °C in a 5% CO2 incubator. After 48 h, 20 µL of resazurin reagent (0.135 mg/mL resazurin in phosphate-buffered saline) was added to each well and the fluorescence (Ex560/Em590) read after 2–4 h in a Spectramax M3 plate reader (Molecular Devices, San Jose, CA, USA). The fluorescence readings were used to calculate % parasite viability relative to the readings obtained from the wells containing untreated control parasite cultures. The IC50 values were determined by plotting % viability vs. log(compound) and performing a non-linear regression using a GraphPad Prism (v. 5.02) (San Diego, CA, USA).
(§1) Thirty-five tetralone derivatives (see Figure 2) and six related benzocycloalkanones (see Figure 3) were evaluated in vitro against T. b. brucei for antitrypanosomal activity through the resazurin assay protocol. The compounds were also evaluated against the chloroquine-sensitive strain (3D7) of P. falciparum for antimalarial activity using pLDH assay and against the HeLa cell line for cytotoxicity evaluation using the resazurin assay protocol.

[2] = In vitro cytotoxicity assay (resazurin); settings: human, HeLa cells; 20 µM compound, 24 h, % cell viability relative to untreated control; read-out: % Viability at 20 µM (SD) HeLa Cell
Experimental: (§2) As previously described, HeLa cells (Cellonex, Johannesburg, South Africa) were seeded in 96-well plates at a density of 2 × 10^4 cells/well in Dulbecco’s modified Eagle’s medium (DMEM) (Lonza, Basel, Switzerland) supplemented with 10% fetal calf serum and antibiotics (penicillin/streptomycin/amphotericin B) and incubated overnight at 37 °C in a 5% CO2 incubator. Compounds were added to the cells at a final concentration of 20 µM, and incubation continued for 24 h. The cell viability in the wells was assessed by adding 20 µL of resazurin reagent (0.135 mg/mL resazurin in phosphate-buffered saline) and reading the fluorescence (Ex560/Em590) after an additional 2–4 h incubation. The fluorescence readings were converted to % cell viability relative to the average readings obtained from the untreated control wells.
as §1

[3] = tested on: chloroquine sensitive strain of P. falciparum (3D7); assay: In vitro antiplasmodial assay (parasite lactate dehydrogenase, pLDH); settings: for viability at 20 µM: Plasmodium falciparum, 3D7, 48 h, read-out: % Viability at 20 µM (SD) 3D7
Experimental: An antimalarial evaluation was performed against the chloroquine sensitive strain of P. falciparum (3D7) using the parasite lactate dehydrogenase (pLDH) assay as previously reported. Parasites were seeded at 2% parasitemia and 1% hematocrit in 96 well plates and were incubated with 20 µM of the test compounds for 48 h in culture medium consisting of Rosell Park Memorial Institute (RPMI 1640; Lonza, Basel, Switzerland) containing 25 mM 4-(2-hydroxyethyl)-1-piperazineethanesulfonic acid (HEPES), supplemented with 0.5% (w/v) Albumax II, 22 mM glucose, 0.65 mM hypoxanthine, 0.05mg/mL gentamicin, and 1% (v/v) human erythrocytes, at 37 °C under an atmosphere of 5% CO2, 5% O2, and 90% N2. The parasite lactate dehydrogenase activity in the wells was determined using the colorimetric assay method of Makler et al.. The absorbance readings were converted to % parasite viability relative to the wells containing untreated parasites.
as §1

HeLa cells = assay: In vitro cytotoxicity assay (resazurin)
Experimental: as §2, §1

[4] = 20 µM compound, 48 h, P. falciparum 3D7, % parasite viability relative to untreated parasites
[5] = 20 µM compound, 24 h, % cell viability relative to untreated control

Compound | % Viability at 20 µM (SD) T.b. brucei [1] | % Viability at 20 µM (SD) HeLa Cell (HeLa cells; [5]) | % Viability at 20 µM (SD) 3D7 ([3]; 20 µM) | further results
N#Cc1cccc(/C=C2\CCc3ccccc3C2=O)c1 [Compound 1] | – | – | – | viability at 20 µM ([1]; Trypanosoma brucei): 0.06%; IC50 ([1]; Trypanosoma brucei): 2.3 µM; viability at 24 h, 20 µM [2]: 87%; viability at 20 µM [3, 4]: 113%
N#Cc1cccc(/C=C2\CCc3ccc(N)cc3C2=O)c1 [Compound 2] | 95 (3) % | 77 (2) % | 110 (1) % | –
O=C1/C(=C/c2ccccc2)CCc2ccccc21 [Compound 3] | 43 (3) % | – | – | % Viability at 20 µM (SD) HeLa Cell (HeLa cells; 20 µM): 116 (5) %; % Viability at 20 µM (SD) 3D7 [3, 4]: 103 (2) %
COc1ccc(/C=C2\CCc3ccccc3C2=O)cc1 [Compound 4] | – | – | – | viability at 20 µM ([1]; Trypanosoma brucei): 0.5%; IC50 ([1]; Trypanosoma brucei): 6.7 µM; viability at 24 h, 20 µM [2]: 76%; viability at 20 µM [3, 4]: 100%
O=C1/C(=C/c2ccc(F)cc2)CCc2ccccc21 [Compound 5] | – | 100 (2) % | 107 (5) % | –
O=C1/C(=C/c2cccc(F)c2)CCc2ccccc21 [Compound 6] | – | – | – | viability at 20 µM ([1]; Trypanosoma brucei): 0.5%; IC50 ([1]; Trypanosoma brucei): 3.1 µM; viability at 24 h, 20 µM [2]: 121%; viability at 20 µM [3, 4]: 131%
O=C1/C(=C/c2ccccc2)CCc2cc(O)ccc21 [Compound 7] | – | – | – | % Viability at 20 µM (SD) T.b. brucei ([1]; 20 µM): 0.6 (0.2) %; viability at 20 µM ([1]; Trypanosoma brucei): 0.66%; IC50 ([1]; Trypanosoma brucei): 0.4 µM; IC50 [1]: 0.46 µM; viability at 24 h, 20 µM [2]: 54%; viability at 20 µM [3, 4]: 89%
O=C1/C(=C/c2ccccc2)CCc2c(O)cccc21 [Compound 8] | 0.5 (0.1) % | 35 (1) % | – | –
O=C1/C(=C/c2ccccc2)CCc2ccc(O)cc21 [Compound 9] | −4 (0.3) % | 9 (0.1) % | 101 (4) % | –
COc1ccc2c(c1)C(=O)/C(=C/c1ccccc1)CC2 [Compound 10] | – | – | – | IC50 ([1]; Trypanosoma brucei): 1.04 µM; viability at 24 h, 20 µM [2]: 65%; viability at 20 µM [3, 4]: 113%
Nc1ccc2c(c1)CC/C(=C\c1ccccc1)C2=O [Compound 11] | – | 86 (9) % | 111 (1) % | % Viability at 20 µM (SD) T.b. brucei ([1]; 20 µM): 95% and 97 (0.3) %
O=C1/C(=C/c2ccc(F)cc2)CCc2ccc(O)cc21 [Compound 12] | – | – | – | viability at 20 µM ([1]; Trypanosoma brucei): -0.6%; IC50 ([1]; Trypanosoma brucei): 0.6 µM; IC50 [1]: 0.68 µM; viability at 24 h, 20 µM [2]: 29%
O=C1/C(=C/c2cccc(F)c2)CCc2ccc(O)cc21 [Compound 13] | −0.9 (0.1) % | 21 (1) % | 13 (1) % | –
O=C1/C(=C/c2ccc(Cl)cc2)CCc2ccc(O)cc21 [Compound 14] | 0.1 (0.1) % | 27 (2) % | – | –
O=C1/C(=C/c2cccc(Cl)c2)CCc2ccc(O)cc21 [Compound 15] | 0.6 (0.01) % | 18 (0.4) % | −3 (6) % | –
O=C1/C(=C/c2ccc(Br)cc2)CCc2ccc(O)cc21 [Compound 16] | – | – | – | viability at 20 µM ([1]; Trypanosoma brucei): 0.1%; IC50 ([1]; Trypanosoma brucei): 1.24 µM; viability at 24 h, 20 µM [2]: 62%; viability at 20 µM [3, 4]: 43%
O=C1/C(=C/c2cccc(Cl)c2)CCc2ccccc21 [Compound 17] | 0.2 (0.3) % | 41 (13) % | 100 (9) % | –
O=C1/C(=C/c2cccc(Br)c2)CCc2ccc(O)cc21 [Compound 18] | 1.2 (0.31) % | 26 (3) % | 99 (8) % | –
O=C1/C(=C/c2ccc(O)cc2)CCc2ccc(O)cc21 [Compound 19] | 1 (0.2) % | 44 (4) % | 104 (12) % | –

Compound | % Viability at 20 µM (SD) T.b. brucei [1] | % Viability at 20 µM (SD) HeLa Cell (HeLa cells; [5]) | % Viability at 20 µM (SD) 3D7 ([3]; 20 µM) | further results
Cc1ccc(/C=C2\CCc3ccc(O)cc3C2=O)cc1 [Compound 20] | – | – | – | viability at 20 µM ([1]; Trypanosoma brucei): -0.4%; IC50 ([1]; Trypanosoma brucei): 5.3 µM; viability at 24 h, 20 µM [2]: 69%; viability at 20 µM [3, 4]: 116%
CN(C)c1ccc(/C=C2\CCc3ccc(O)cc3C2=O)cc1 [Compound 21] | 25 (2) % | 51 (4) % | 142 (9) % | –
O=C1/C(=C/c2ccc(Cl)c(Cl)c2)CCc2ccc(O)cc21 [Compound 22] | 0.9 (0.2) % | 5 (0.9) % | 81 (1) % | –
COc1ccc(/C=C2\CCc3ccc(O)cc3C2=O)cc1 [Compound 23] | 0.2 (0.1) % | 25 (2) % | 88 (10) % | –
O=C1/C(=C/c2ccc(Cl)cc2)CCc2ccccc21 [Compound 24] | 26 (8) % | 100 (3) % | 100 (8) % | –
O=C1/C(=C/c2cccnc2)CCc2ccccc21 [Compound 25] | −0.7 (0.4) % | 24 (0.4) % | 29 (12) % | –
COc1ccc2c(c1)C(=O)/C(=C/c1ccco1)CC2 [Compound 28] | 31 (5) % | 97 (9) % | 100 (3) % | –
COc1ccc2c(c1)C(=O)/C(=C/c1ccc[nH]1)CC2 [Compound 29] | 103 (1) % | 97 (5) % | 115 (5) % | –
COc1ccc2c(c1)C(=O)/C(=C/c1cccs1)CC2 [Compound 30] | 32 (9) % | 106 (2) % | 107 (6) % | –
COc1ccc2c(c1)C(=O)/C(=C/c1cccnc1)CC2 [Compound 31] | – | 17 (4) % | 85 (12) % | –
COc1ccc2c(c1)C(=O)/C(=C/c1ccccn1)CC2 [Compound 33] | −0.4 (0.2) % | 20 (0.6) % | 7 (8) % | –
COc1ccc2c(c1)C(=O)/C(=C/c1cccnc1Cl)CC2 [Compound 34] | 98 (2) % | 47 (1.7) % | 113 (6) % | –
O=C1/C(=C/c2ccc(Cl)cc2)Cc2ccccc21 [Compound 36] | – | 74 (10) % | 93 (3) % | % Viability at 20 µM (SD) T.b. brucei ([1]; 20 µM): 99 (0.1) %
O=C1/C(=C/c2ccc(Cl)cc2)CCCc2ccccc21 [Compound 37] | – | 53 (10) % | 113 (0.6) % | % Viability at 20 µM (SD) T.b. brucei ([1]; 20 µM): 0.3 (0.3) %
O=C1/C(=C/c2ccc(Cl)cc2)CSc2ccccc21 [Compound 39] | – | 8 (2) % | 11 (0.9) % | % Viability at 20 µM (SD) T.b. brucei ([1]; 20 µM): 0.3 (0.3) %
O=c1c(Cc2ccc(Cl)cc2)coc2ccccc12 [Compound 40] | – | 103 (3) % | 90 (6) % | % Viability at 20 µM (SD) T.b. brucei ([1]; 20 µM): 94 (7) %
O=c1c(Cc2ccc(Cl)cc2)csc2ccccc12 [Compound 41] | – | 109 (7) % | 107 (5) % | % Viability at 20 µM (SD) T.b. brucei ([1]; 20 µM): 103 (0.3) %
N=C(N)c1ccc(OCCCCCOc2ccc(C(=N)N)cc2)cc1 [PE, pentamidine, reference compound] | – | – | – | IC50 ([1]; Trypanosoma brucei): 0.0042 µM
